Data on nine compounds can be found in ChEMBL document CHEMBL1151151, “Anti-AIDS agents, 2: Inhibitory effects of tannins on HIV reverse transcriptase and HIV replication in H9 lymphocyte cells” (J Nat Prod, 1990).

Data set [1] can be described thus: Growth inhibition of human H9 cells at 30 uM. Type of data set: cell-based. As to conditions: read-out: GI.
Data set [2] has as its system Human immunodeficiency virus 1. Nature of the data set: Antiviral activity against HIV1 3B infected in human H9 cells assessed as inhibition of viral replication at 13 uM treated during viral infection step by p24 antigen capture assay. Type of data set: functional, organism-based.
Data set [3] deals with Human immunodeficiency virus type 1 reverse transcriptase (Human immunodeficiency virus 1) (UniProt Q72547). Nature of the data set: Inhibition of polymerase activity of HIV reverse transcriptase assessed as residual enzyme activity at 64 uM in presence of 75 ug/ml activated dNA and 25 uM dTTP.
For data set [4] the target is unchanged. Nature of the data set: Inhibition of polymerase activity of HIV reverse transcriptase assessed as residual enzyme activity at 64 uM in presence of 75 ug/ml activated dNA and 5 uM dTTP.
The target is the same in data set [5]. Nature of the data set: Inhibition of HIV reverse transcriptase at 12.5 uM. As to conditions: TDE = time-dependent effect.
The subject of data set [6] is Human immunodeficiency virus 1. Nature of the data set: Antiviral activity against HIV1 3B infected in human H9 cells assessed as inhibition of viral replication at 13 uM pretreated before viral infection by p24 antigen capture assay. The data set is classed as functional, organism-based.
Data set [7] deals with Human immunodeficiency virus 1. Nature of the data set: Antiviral activity against HIV1 3B infected in human H9 cells assessed as inhibition of viral replication after 3 days by p24 antigen capture assay. Type of data set: functional. More on the design: concentration or dose not given beside the values.
The subject of data set [8] is Human immunodeficiency virus 1. Nature of the data set: Antiviral activity against HIV1 3B infected in human H9 cells assessed as inhibition of viral replication at 18 uM treated after viral infection by p24 antigen capture assay. Type of data set: functional, organism-based.
In data set [9] the target is Human immunodeficiency virus type 1 reverse transcriptase (Human immunodeficiency virus 1) (UniProt Q72547). Kind of data set: Inhibition of HIV reverse transcriptase.
The test system of data set [10] is Human immunodeficiency virus 1. Nature of the data set: Antiviral activity against HIV1 3B infected in human H9 cells assessed as inhibition of viral replication at 21 uM treated after viral infection by p24 antigen capture assay. The data set is classed as functional, organism-based.
Data set [11] addresses Human immunodeficiency virus type 1 reverse transcriptase (Human immunodeficiency virus 1) (UniProt Q72547). Nature of the data set: Inhibition of polymerase activity of HIV reverse transcriptase assessed as residual enzyme activity at 64 uM in presence of 375 ug/ml activated dNA and 5 uM dTTP.
Data set [12] concerns Human immunodeficiency virus 1. Nature of the data set: Antiviral activity against HIV1 3B infected in human H9 cells assessed as inhibition of viral replication at 9.2 uM pretreated before viral infection by p24 antigen capture assay. Type of data set: functional, organism-based.
The subject of data set [13] is Human immunodeficiency virus 1. Kind of data set: Antiviral activity against HIV1 3B infected in human H9 cells assessed as inhibition of viral replication at 9.2 uM treated during viral infection step by p24 antigen capture assay. Type of data set: functional, organism-based.
Data set [14] has as its system Human immunodeficiency virus 1. Nature of the data set: Antiviral activity against HIV1 3B infected in human H9 cells assessed as inhibition of viral replication at 10 uM treated during viral infection step by p24 antigen capture assay. Type of data set: functional, organism-based.
In data set [15] the test system is Human immunodeficiency virus 1. Kind of data set: Antiviral activity against HIV1 3B infected in human H9 cells assessed as inhibition of viral replication at 10 uM pretreated before viral infection by p24 antigen capture assay. The data set is classed as functional, organism-based.
In data set [16] the test system is Human immunodeficiency virus 1. Kind of data set: Antiviral activity against HIV1 3B infected in human H9 cells assessed as inhibition of viral replication at 18 uM pretreated before viral infection by p24 antigen capture assay. Type of data set: functional, organism-based.
The test system of data set [17] is Human immunodeficiency virus 1. Nature of the data set: Antiviral activity against HIV1 3B infected in human H9 cells assessed as inhibition of viral replication at 18 uM treated during viral infection step by p24 antigen capture assay. The data set is classed as functional, organism-based.
For data set [18], the system named is Human immunodeficiency virus 1. Kind of data set: Antiviral activity against HIV1 3B infected in human H9 cells assessed as inhibition of viral replication at 21 uM pretreated before viral infection by p24 antigen capture assay. Type of data set: functional, organism-based.
For data set [19], the system named is Human immunodeficiency virus 1. Nature of the data set: Antiviral activity against HIV1 3B infected in human H9 cells assessed as inhibition of viral replication at 21 uM treated during viral infection step by p24 antigen capture assay. The data set is classed as functional, organism-based.
Data set [20] addresses Human immunodeficiency virus type 1 reverse transcriptase (Human immunodeficiency virus 1) (UniProt Q72547). Nature of the data set: Inhibition of polymerase activity of HIV reverse transcriptase assessed as residual enzyme activity at 46 uM in presence of 75 ug/ml activated dNA and 25 uM dTTP.
The target is the same in data set [21]. Kind of data set: Inhibition of polymerase activity of HIV reverse transcriptase assessed as residual enzyme activity at 46 uM in presence of 375 ug/ml activated dNA and 5 uM dTTP.
Data set [22] has the same target. Nature of the data set: Inhibition of polymerase activity of HIV reverse transcriptase assessed as residual enzyme activity at 46 uM in presence of 75 ug/ml activated dNA and 5 uM dTTP.

Each structure is given as a SMILES string. Active and inactive are the calls of the source. The rule behind the calls is not given here. A value given as a limit tells only on which side of the number the result lay.

In the case of `O=C1OC[C@H]2O[C@@H](O)[C@H](O)[C@@H](O)[C@@H]2OC(=O)c2cc(O)c(O)c(O)c2-c2c(O)c(O)c3oc(=O)c4c(c(O)c(O)c5oc(=O)c2c3c54)-c2c1cc(O)c(O)c2O` [PUNICALIN], in [1], the inhibition at 30 µM was 15%. In addition, the result in data set [2], in data set [8] and in data set [10] was Active. Moreover, the Activity in data set [3] is 34.4%; in [4] it was 11.4%; in data set [5], “tde”; in [9] it was “Dose-dependent effect”; in [11] it was 45.3%. Moreover, the result in data set [6] was inactive. For the same compound, the “inhibition (INH)” value in [7] is more than 50%. This compound also returned an ID50 in data set [9] of 8 µM.

Turning to `O=C1O[C@@H]2[C@@H](OC(=O)c3cc(O)c(O)c(O)c3-c3c1cc(O)c(O)c3O)[C@H](O)O[C@@H]1COC(=O)c3cc(O)c(O)c(O)c3-c3c(O)c(O)c4oc(=O)c5c(c(O)c(O)c6oc(=O)c3c4c65)-c3c(cc(O)c(O)c3O)C(=O)O[C@@H]21` [PUNICALAGIN], the result in [12], in data set [13], in [8] and in [10] was Active. Further, in data set [7], the “inhibition (INH)” value is more than 50%.

As for `O=C(O[C@@H]1O[C@@H]2COC(=O)c3cc(O)c(O)c(O)c3-c3c(cc(O)c(O)c3O)C(=O)O[C@H]2[C@@H]2OC(=O)c3cc(O)c(O)c(O)c3-c3c(cc(O)c(O)c3O)C(=O)O[C@@H]12)c1cc(O)c(O)c(Oc2c(O)c(O)c(O)c3c2C(=O)O[C@H]2[C@@H]4OC(=O)c5cc(O)c(O)c(O)c5-c5c(cc(O)c(O)c5O)C(=O)O[C@H]4[C@@H](OC(=O)c4cc(O)c(O)c(Oc5c(O)c(O)c(O)c6c5C(=O)O[C@H]5[C@@H]7OC(=O)c8cc(O)c(O)c(O)c8-c8c(cc(O)c(O)c8O)C(=O)O[C@H]7[C@H](OC(=O)c7cc(O)c(O)c(Oc8c(O)c(O)c(O)c9c8C(=O)O[C@H]8[C@@H]%10OC(=O)c%11cc(O)c(O)c(O)c%11-c%11c(cc(O)c(O)c%11O)C(=O)O[C@H]%10[C@@H](OC(=O)c%10cc(O)c(O)c(O)c%10)O[C@@H]8COC(=O)c8cc(O)c(O)c(O)c8-9)c7)O[C@@H]5COC(=O)c5cc(O)c(O)c(O)c5-6)c4)O[C@@H]2COC(=O)c2cc(O)c(O)c(O)c2-3)c1`, the ID50 in data set [9] worked out at 20 µM.

In the case of `O=C(O)C[C@H]1C(=O)O[C@H]2[C@H](OC(=O)c3cc(O)c(O)c(O)c3)[C@@H](OC(=O)c3cc(O)c(O)c4c3[C@H]1[C@H](O)C(=O)O4)[C@H](OC(=O)c1cc(O)c(O)c(O)c1)O[C@@H]2COC(=O)c1cc(O)c(O)c(O)c1` [CHEBULINIC ACID], the outcome in [14], in data set [15], in [8] and in data set [10] was Active. The “inhibition (INH)” value in [7] is given as more than 50%.

Turning to `O=C(O[C@@H]1[C@H](O)C[C@@](OC(=O)c2cc(O)c(O)c(O)c2)(C(=O)O)C[C@H]1OC(=O)c1cc(O)c(O)c(O)c1)c1cc(O)c(O)c(O)c1`, the outcome in [16], in [17], in data set [8] and in [10] was Active. Moreover, the “inhibition (INH)” value in [7] is more than 50%.

On to `O=C(O)C1=C[C@@H](OC(=O)c2cc(O)c(O)c(O)c2)[C@@H](O)[C@H](OC(=O)c2cc(O)c(O)c(O)c2)C1`, for which the result in [18], in data set [19], in data set [8] and in data set [10] was Active. Moreover, in data set [7], the “inhibition (INH)” value is reported as more than 50%.

For the compound `O=C1O[C@H]([C@@H]2OC(=O)c3cc(O)c(O)c(O)c3-c3c(O)c(O)c4oc(=O)c5c(c(O)c(O)c6oc(=O)c3c4c65)-c3c(cc(O)c(O)c3O)C(=O)OC[C@H]2O)[C@@H]2OC(=O)c3c(c(O)c(O)c(O)c3[C@H]2O)-c2c1cc(O)c(O)c2O` [PUNICACORTEIN C], the result in data set [12], in data set [13], in data set [8] and in [10] was Active. Moreover, the Activity in [20] is 37.6%; in data set [21], 46.2%; in data set [22], 21.5%. For the same compound, the “inhibition (INH)” value in [7] is reported as more than 50%. The ID50 in data set [9] is 5 µM.

Regarding `O=C(O)C1=C[C@@H](OC(=O)c2cc(O)c(O)c(O)c2)[C@@H](OC(=O)c2cc(O)c(O)c(O)c2)[C@H](OC(=O)c2cc(O)c(O)c(O)c2)C1`, the “inhibition (INH)” value in data set [7] is given as more than 50%.

In the case of `O=C(O)C[C@@H]1C(=O)O[C@H]2[C@@H]3OC(=O)c4cc(O)c(O)c(O)c4-c4c(cc(O)c(O)c4O)C(=O)OC[C@H]2O[C@@H](OC(=O)c2cc(O)c(O)c(O)c2)[C@@H]3OC(=O)c2cc(O)c(O)c3c2[C@H]1[C@H](O)C(=O)O3` [CHEBULAGIC ACID], the outcome in [14], in data set [8] and in data set [10] was Active. The outcome in data set [15] was inactive. Besides, the “inhibition (INH)” value in data set [7] is more than 50%.
